Laboratory results taken from patent US9034831B2, “Pharmaceutical composition for a hepatitis C viral protease inhibitor” (Boehringer Ingelheim International GmbH, priority 2009, dated 2015).
Counter-ions that a name gives are not always drawn.

Experiment: Solubility of drug substance in the compositions as a function of temperature
Type: physicochemical
Settings: in the compositions of the invention

- solubility (temperature dependence): increases as the temperature decreases
SMILES: C=C[C@@H]1C[C@]1(NC(=O)[C@@H]1C[C@@H](Oc2cc(-c3csc(NC(=O)C(C)C)n3)nc3c(Br)c(OC)ccc23)CN1C(=O)[C@@H](NC(=O)OC1CCCC1)C(C)(C)C)C(=O)O [Compound (1) sodium salt]
